Test results published in article PMC4249961, “Characterization of an Acidic Chitinase from Seeds of Black Soybean (Glycine max (L) Merr Tainan No. 3)” (PLoS ONE, 2014).

Tests used:
[1] = system: T1, purified chitinase from black soybean seeds (acidic chitinase, 20.1 kDa); assay: fluorimetric release of 4-methylumbelliferone, Lineweaver-Burk; type: biochemical, Glycine max; settings: pH 5.0, 40 °C, 0.05 M sodium acetate, 30 min
T1 construct: native purification from seeds; monomer; smaller than known soybean seed class III (28 kDa) and class I (32 kDa) chitinases; trace basic isoform co-purified
Source text: fluorimetric release of 4-methylumbelliferone, Lineweaver-Burk on purified chitinase from black soybean seeds (acidic chitinase, 20.1 kDa)

[2] = system: T1, purified chitinase from black soybean seeds (acidic chitinase, 20.1 kDa); assay: p-nitrophenol release at […] nm, Lineweaver-Burk; type: biochemical, Glycine max; settings: pH 4.0, 37 °C, 0.05 M acetate, 30 min

Km [1]	Km [2]	SMILES
17.4 µM	–	CC(=O)N[C@H]1[C@H](Oc2ccc3c(C)cc(=O)oc3c2)O[C@H](CO)[C@@H](O[C@@H]2O[C@H](CO)[C@@H](O[C@@H]3O[C@H](CO)[C@@H](O)[C@H](O)[C@H]3NC(C)=O)[C@H](O)[C@H]2NC(C)=O)[C@@H]1O [4-MU-GlcNAc3]
–	245 µM	CC(=O)N[C@H]1[C@H](Oc2ccc([N+](=O)[O-])cc2)O[C@H](CO)[C@@H](O[C@@H]2O[C@H](CO)[C@@H](O[C@@H]3O[C@H](CO)[C@@H](O[C@@H]4O[C@H](CO)[C@@H](O)[C@H](O)[C@H]4NC(C)=O)[C@H](O)[C@H]3NC(C)=O)[C@H](O)[C@H]2NC(C)=O)[C@@H]1O [pNp-GlcNAc4]
